As usually defined, the IC50 is the concentration that inhibits the measured activity by half. For orientation: AC50 means the concentration giving half of the maximal activity seen. For orientation: EC50 means the concentration that produces a half-maximal response.

The values that follow come from ChEMBL document CHEMBL1201862, “PubChem BioAssay data set” (2004).

In one assay the target is T1, Leucine aminopeptidase (Plasmodium falciparum 3D7, UniProt Q8IL11).
T1 sequence (Q8IL11 whole entry): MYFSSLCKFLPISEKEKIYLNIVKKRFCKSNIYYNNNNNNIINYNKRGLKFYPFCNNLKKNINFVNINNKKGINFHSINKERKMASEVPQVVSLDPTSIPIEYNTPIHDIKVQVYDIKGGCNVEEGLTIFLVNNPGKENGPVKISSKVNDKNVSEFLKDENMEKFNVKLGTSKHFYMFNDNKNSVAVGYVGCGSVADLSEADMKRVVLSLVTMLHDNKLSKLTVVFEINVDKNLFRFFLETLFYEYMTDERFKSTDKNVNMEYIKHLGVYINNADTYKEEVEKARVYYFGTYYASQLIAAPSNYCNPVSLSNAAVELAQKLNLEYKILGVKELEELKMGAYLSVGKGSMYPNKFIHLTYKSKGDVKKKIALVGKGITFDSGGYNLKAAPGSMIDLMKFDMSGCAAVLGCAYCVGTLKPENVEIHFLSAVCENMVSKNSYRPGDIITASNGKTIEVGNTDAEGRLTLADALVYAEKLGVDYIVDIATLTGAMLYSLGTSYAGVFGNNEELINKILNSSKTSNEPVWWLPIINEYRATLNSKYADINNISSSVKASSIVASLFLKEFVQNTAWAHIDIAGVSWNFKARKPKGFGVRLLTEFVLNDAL
Kind of assay: P. falciparum M17LAP inhibitors, primary screen, biochemical, fluorogenic H-Leu-NHMec substrate, 1536-well (AID 1619). It is filed as functional.

In the next assay the target is Cytochrome P450 2C9 (Homo sapiens, UniProt P11712).
Assay [1] in a line: viability of uninfected HEp-2 cells – cell-based, HTS, cytotoxicity control for RSV inhibitor project, dose response (AID 2410). It is filed as functional. As to conditions: human respiratory syncytial virus.
Another assay addresses T2, Aminopeptidase N (Plasmodium falciparum FcB1/Columbia, UniProt O96935).
T2 sequence (O96935 whole entry): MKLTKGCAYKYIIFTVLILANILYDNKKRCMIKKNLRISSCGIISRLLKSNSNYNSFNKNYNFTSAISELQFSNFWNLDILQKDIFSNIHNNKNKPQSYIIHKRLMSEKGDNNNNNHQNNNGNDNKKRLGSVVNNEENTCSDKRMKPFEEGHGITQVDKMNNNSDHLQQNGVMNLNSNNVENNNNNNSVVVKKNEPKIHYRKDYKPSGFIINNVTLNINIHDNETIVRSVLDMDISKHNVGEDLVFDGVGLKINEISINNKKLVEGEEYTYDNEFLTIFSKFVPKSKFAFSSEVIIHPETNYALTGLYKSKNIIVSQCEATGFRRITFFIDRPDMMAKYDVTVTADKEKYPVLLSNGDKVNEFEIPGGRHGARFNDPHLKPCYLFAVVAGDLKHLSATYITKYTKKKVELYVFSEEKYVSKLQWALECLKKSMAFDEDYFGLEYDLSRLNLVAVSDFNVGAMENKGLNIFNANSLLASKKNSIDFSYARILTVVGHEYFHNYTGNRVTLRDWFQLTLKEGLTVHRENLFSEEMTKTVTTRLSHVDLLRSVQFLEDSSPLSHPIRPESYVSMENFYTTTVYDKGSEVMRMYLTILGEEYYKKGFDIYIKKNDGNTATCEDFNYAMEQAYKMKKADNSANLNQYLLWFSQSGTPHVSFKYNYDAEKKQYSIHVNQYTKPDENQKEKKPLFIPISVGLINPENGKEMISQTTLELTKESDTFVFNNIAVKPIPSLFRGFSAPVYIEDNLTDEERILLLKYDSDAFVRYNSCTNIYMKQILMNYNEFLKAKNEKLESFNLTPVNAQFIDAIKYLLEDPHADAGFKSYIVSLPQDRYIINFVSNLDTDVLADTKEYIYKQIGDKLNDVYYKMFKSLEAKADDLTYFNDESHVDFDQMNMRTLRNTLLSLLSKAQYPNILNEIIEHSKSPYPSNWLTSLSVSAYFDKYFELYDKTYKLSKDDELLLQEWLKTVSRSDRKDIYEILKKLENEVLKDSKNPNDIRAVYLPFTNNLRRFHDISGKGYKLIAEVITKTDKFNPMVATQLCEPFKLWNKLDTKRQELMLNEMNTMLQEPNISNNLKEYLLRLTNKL
Nature of the assay: malaria alanyl aminopeptidase activity blockers – biochemical, fluorogenic H-Leu-NHMec substrate, 1536-well (AID 1445). Set-up: species or system Plasmodium falciparum 3D7, 3D7.

A further assay addresses Large T antigen (Simian virus 40, UniProt P03070). It is filed as functional, Betapolyomavirus macacae.
Assay [2] deals with T3, Mannose-6-phosphate isomerase (Homo sapiens, UniProt P34949).
T3 sequence (P34949 whole entry): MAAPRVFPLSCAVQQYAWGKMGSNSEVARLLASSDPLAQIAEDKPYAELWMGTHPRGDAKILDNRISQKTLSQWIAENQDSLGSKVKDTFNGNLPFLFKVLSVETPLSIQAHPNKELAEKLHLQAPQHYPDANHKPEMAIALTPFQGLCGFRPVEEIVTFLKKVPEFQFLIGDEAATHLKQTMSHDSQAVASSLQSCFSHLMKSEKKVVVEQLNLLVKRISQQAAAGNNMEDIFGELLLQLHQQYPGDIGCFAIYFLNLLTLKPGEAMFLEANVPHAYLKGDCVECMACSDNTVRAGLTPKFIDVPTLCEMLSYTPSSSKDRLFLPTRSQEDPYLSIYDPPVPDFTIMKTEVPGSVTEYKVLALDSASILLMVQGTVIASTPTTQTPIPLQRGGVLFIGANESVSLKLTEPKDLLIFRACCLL
Kind of assay: MPI inhibition at elevated mannose 6-phosphate – biochemical, fluorescence intensity, high mannose 6-phosphate, primary screen (AID 1220).

For a further assay, the target named is Genome polyprotein (dengue virus type 2, UniProt P29990). Kind of assay: flavivirus cap methylation enzyme inhibition – biochemical, confirmation dose response, primary screen (AID 588689). Type of assay: functional.
The target of assay [3] is T4, Rac GTPase-activating protein 1 (Homo sapiens, UniProt Q9H0H5).
T4 sequence (Q9H0H5 whole entry): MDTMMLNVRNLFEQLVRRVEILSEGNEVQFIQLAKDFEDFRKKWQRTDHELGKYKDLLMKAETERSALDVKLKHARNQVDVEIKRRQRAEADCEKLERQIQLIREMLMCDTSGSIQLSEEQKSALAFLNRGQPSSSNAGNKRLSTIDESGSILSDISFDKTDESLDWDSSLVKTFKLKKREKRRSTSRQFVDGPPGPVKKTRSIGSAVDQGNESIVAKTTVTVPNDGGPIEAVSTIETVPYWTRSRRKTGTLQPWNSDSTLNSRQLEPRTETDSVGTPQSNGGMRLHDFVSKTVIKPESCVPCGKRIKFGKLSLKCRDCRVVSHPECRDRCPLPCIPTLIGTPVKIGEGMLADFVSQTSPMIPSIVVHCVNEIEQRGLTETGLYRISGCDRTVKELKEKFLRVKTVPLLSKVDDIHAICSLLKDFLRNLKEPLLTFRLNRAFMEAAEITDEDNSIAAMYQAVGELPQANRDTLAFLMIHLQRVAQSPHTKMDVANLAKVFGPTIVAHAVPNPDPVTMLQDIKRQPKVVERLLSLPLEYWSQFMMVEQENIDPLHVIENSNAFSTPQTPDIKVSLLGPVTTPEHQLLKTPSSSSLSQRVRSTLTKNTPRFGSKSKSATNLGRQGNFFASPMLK
Nature of the assay: blockers of MgcRacGAP-driven Rac1 GTP hydrolysis – biochemical, ADP Hunter fluorescence, primary and confirmatory, confirmation (AID 624330). It is filed as functional.

The test system of assay [4] is Vero. Nature of the assay: mammalian cell viability reduction – secondary assay, cytotoxicity control for West Nile virus antiviral project, dose response (AID 1650). It is filed as functional. Conditions: Chlorocebus sabaeus.
Assay [5] can be described thus: Luminescence Cell-Based Dose Retest to Confirm Inhibitors of Cancer Stem Cells. [Related pubchem assays (depositor defined):AID2717, AID2721]. Conditions: Homo sapiens. Type of assay: functional.
The subject of assay [6] is Vero. Nature of the assay: cells. It is filed as functional. As to conditions: Chlorocebus sabaeus.
Assay [7] in a line: microbe, parasite or virus in culture. It is filed as functional. As to conditions: Mycobacterium tuberculosis.
Assay [8] is described as follows: viability of PTEN-deleted HCT116 cells – cell-based, HCT116 PTEN knockout, dose response (AID 1047).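 Further: HCT116 colon tumor cells with PTEN knocked out; cells exposed to compound for 60 hours before readout; potency for loss of cell viability measured by luminescence.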 Type of assay: functional.
Assay [9] in a line: viability of HCT116 lacking mutant beta-catenin – cell-based, human colon tumor, dose response (AID 1045).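 Further: HCT116 colon tumor cells with beta catenin knocked out; cells exposed to compound for 60 hours.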 Type of assay: functional.

Calls of active or inactive are those of the source.

Cytochrome P450 2C9, sequence (P11712 whole entry): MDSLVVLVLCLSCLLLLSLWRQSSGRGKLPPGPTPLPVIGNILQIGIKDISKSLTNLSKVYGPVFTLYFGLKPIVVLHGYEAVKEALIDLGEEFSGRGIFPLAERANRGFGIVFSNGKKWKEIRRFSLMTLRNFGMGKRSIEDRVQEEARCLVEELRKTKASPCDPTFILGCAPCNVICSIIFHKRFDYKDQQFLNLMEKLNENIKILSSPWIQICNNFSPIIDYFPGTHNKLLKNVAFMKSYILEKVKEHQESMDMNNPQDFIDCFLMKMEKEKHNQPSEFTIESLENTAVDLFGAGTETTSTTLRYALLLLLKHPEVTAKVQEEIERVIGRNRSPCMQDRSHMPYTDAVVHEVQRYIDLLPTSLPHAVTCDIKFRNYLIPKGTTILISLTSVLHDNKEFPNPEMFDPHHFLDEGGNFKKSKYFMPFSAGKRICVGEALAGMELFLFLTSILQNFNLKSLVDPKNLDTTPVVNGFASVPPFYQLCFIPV
Large T antigen, sequence (P03070 whole entry): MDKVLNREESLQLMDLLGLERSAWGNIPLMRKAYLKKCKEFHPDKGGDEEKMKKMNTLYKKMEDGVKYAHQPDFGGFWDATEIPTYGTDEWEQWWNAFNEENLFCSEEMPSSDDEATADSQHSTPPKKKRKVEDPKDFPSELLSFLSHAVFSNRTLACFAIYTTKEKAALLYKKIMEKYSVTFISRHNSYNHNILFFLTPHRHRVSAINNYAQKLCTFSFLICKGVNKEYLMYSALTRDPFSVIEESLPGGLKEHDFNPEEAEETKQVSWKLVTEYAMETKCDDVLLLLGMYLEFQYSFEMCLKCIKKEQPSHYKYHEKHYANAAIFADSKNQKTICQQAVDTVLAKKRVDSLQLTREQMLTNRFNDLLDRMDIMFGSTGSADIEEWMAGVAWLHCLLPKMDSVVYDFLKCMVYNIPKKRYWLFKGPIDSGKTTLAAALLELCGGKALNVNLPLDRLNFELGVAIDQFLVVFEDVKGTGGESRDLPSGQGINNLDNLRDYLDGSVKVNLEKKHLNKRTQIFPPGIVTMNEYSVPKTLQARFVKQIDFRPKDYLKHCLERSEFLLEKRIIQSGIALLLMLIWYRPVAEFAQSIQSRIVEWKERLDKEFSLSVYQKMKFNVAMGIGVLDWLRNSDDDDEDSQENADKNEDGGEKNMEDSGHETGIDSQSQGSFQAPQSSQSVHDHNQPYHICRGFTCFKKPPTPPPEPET
Genome polyprotein, sequence (P29990 2492-3391 limits assumed): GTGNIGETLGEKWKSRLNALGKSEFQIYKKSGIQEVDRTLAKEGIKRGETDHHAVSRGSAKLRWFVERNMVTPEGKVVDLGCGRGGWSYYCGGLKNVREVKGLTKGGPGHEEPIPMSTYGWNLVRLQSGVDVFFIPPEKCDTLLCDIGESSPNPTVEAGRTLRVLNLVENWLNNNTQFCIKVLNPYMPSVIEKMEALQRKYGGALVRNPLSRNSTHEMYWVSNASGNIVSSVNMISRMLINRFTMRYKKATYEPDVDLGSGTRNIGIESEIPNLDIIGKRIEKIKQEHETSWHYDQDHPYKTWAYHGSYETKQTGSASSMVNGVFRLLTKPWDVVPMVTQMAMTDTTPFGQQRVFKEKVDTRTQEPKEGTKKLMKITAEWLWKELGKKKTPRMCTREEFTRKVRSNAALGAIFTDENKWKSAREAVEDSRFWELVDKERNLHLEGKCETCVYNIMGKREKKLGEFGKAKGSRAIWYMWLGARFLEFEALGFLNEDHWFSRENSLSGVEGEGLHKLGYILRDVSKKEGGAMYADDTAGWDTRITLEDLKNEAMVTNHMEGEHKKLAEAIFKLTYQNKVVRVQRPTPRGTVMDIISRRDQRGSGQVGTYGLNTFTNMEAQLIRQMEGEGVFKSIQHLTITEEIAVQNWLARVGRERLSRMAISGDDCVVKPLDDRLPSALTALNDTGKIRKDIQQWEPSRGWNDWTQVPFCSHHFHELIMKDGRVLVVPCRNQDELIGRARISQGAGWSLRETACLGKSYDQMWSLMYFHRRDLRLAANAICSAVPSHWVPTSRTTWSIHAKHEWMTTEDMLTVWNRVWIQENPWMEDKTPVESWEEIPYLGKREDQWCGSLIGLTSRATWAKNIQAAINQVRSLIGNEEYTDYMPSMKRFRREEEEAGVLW

For the compound `Cc1nc2c([nH]1)OC(N)=C(C#N)C21CCN(Cc2ccccc2)CC1`, on Leucine aminopeptidase, the concentration for half-maximal inhibition (IC50) was 63.2 µM (active).
For the compound `Cn1c(O)cc(=O)nc1SCC(=O)Nc1ccccc1`, the IC50 at Leucine aminopeptidase is 17.1 µM (active). At Cytochrome P450 2C9, the AC50 is 2.82 µM (inconclusive).
`COc1ccc(-c2nc(N3CCOCC3)nc3n[nH]c(N)c23)cc1`: the 50% inhibitory concentration (IC50) at Leucine aminopeptidase was 8.11 µM (active).
On to `CCCCN1C(=O)C2Cc3c([nH]c4ccccc34)CN2C1=S` (centres undefined), for which the CC50 in [1] was 20.8 µM (active).
Take `COc1ccc(/C=C/C(=O)Nc2ccc3c(c2)CCC3)cc1OC`: the CC50 in assay [1] was > 50 µM (active).
For the compound `CC1=NOC(=O)/C1=C\c1ccc(-c2ccc(Cl)c(C(=O)O)c2)o1`, the 50% inhibitory concentration (IC50) on Aminopeptidase N was 17.4 µM (active); on Large T antigen, 14.2 µM (active); in assay [2], > 50 µM (not active); at Genome polyprotein it was 15.3 µM (active); in assay [3] it was 141 µM (active).
As to `O=C(c1c[nH]c2ccccc12)C(Cl)c1ccccc1` (centres undefined), the CC50 with Vero [4] was 66.6 µM (active); in the assay on Vero [6], > 25 µM (active). Also, the half-maximal activity concentration (AC50) in [5] was 1.74 µM (active).
For `CCCCOc1ccc(C(=O)N/N=C/c2ccc(OCCN3CCCCC3)c(OC)c2)cc1`, the CC50 in assay [1] was 16.1 µM (active); in assay [7], 18.9 µM (active).
With `CCOC(=O)c1ccc(-c2ccc(/C=N/NC(=O)CN(c3ccccc3Br)S(C)(=O)=O)o2)cc1`, the CC50 in assay [1] is > 50 µM (active). Besides, the concentration giving a half-maximal response (EC50) in assay [8] is 17.8 µM (active); in assay [9] it was 22.5 µM (active).
